The record followed here is ChEMBL document CHEMBL1153711, “Synthesis and antimycobacterial evaluation of novel 5,6-dimethoxy-1-oxo-2,5-dihydro-1H-2-indenyl-5,4-substituted phenyl methanone analogues” (Bioorg Med Chem Lett, 2009).

Converted amounts (≈) assume the structure as drawn.

For the experiment, the system named is Mycobacterium tuberculosis. Description: Antimycobacterial activity against Mycobacterium tuberculosis H37Rv by agar dilution method. The class given is functional. In general terms: Agar dilution tests growth on a series of plates holding different concentrations.
In the case of `COc1cc2c(cc1OC)C(=O)C(C(=O)c1ccc(N(C)C)cc1)C2` (stereo not drawn), the MIC (in general, the least concentration at which growth counts as inhibited) is 5.94 µM (≈ 2.02 µg/mL). This lies in the single-digit micromolar range. In the case of `COc1cc2c(cc1OC)C(=O)C(C(=O)c1ccc(Br)cc1)C2` (stereo not drawn), it took 4.94 µM (≈ 1.85 µg/mL) to inhibit growth (MIC). Turning to `COc1cc2c(cc1OC)C(=O)C(C(=O)c1cc(OC)c(OC)c(OC)c1)C2` (stereo not drawn), the MIC is above 6.25 µM. The value for `COc1cc2c(cc1OC)C(=O)C(C(=O)c1cccc([N+](=O)[O-])c1)C2` (stereo not drawn) was 3.46 µM (≈ 1.18 µg/mL).

Turning to `COc1cc2c(cc1OC)C(=O)C(C(=O)c1ccccc1Cl)C2` (stereo not drawn), the lowest concentration to inhibit growth (MIC) was 1.82 µM (≈ 0.602 µg/mL). The value for `COc1ccc(C(=O)C2Cc3cc(OC)c(OC)cc3C2=O)cc1OC` (stereo not drawn) was above 6.25 µM; that for `COc1cc2c(cc1OC)C(=O)C(C(=O)c1c(Cl)cccc1Cl)C2` (stereo not drawn) was 2.48 µM (≈ 0.906 µg/mL).

On to `COc1cc2c(cc1OC)C(=O)C(C(=O)c1ccc(C#N)cc1)C2` (stereo not drawn), for which the MIC was above 6.25 µM. Next, `COc1cc2c(cc1OC)C(=O)C(C(=O)c1ccccc1)C2` (stereo not drawn): 6.62 µM (≈ 1.96 µg/mL); `COc1ccc(C(=O)C2Cc3cc(OC)c(OC)cc3C2=O)cc1` (stereo not drawn): above 6.25 µM. The value for `COc1cc2c(cc1OC)C(=O)C(C(=O)c1ccc(Cl)cc1)C2` (stereo not drawn) was 1.52 µM (≈ 0.503 µg/mL).

The compound `NNC(=O)c1ccncc1` [ISONIAZID] came in with an MIC of 0.75 µM (≈ 0.103 µg/mL). `COc1cc2c(cc1OC)C(=O)C(C(=O)c1ccc(F)cc1)C2` (stereo not drawn) yielded an MIC of 0.1 µM (≈ 0.0314 µg/mL).
